Assay results published in patent US9580427B2, “Kinase inhibitors” (The Regents of the University of California, priority 2011, dated 2017).

Each compound was assayed against T1, Btk (human, full length) (Homo sapiens, UniProt Q06187) (assay: Btk in vitro kinase activity assay (32P-ATP, poly[Glu:Tyr])). Conditions: 30 min pre-incubation with inhibitor, 5 nM Btk.
T1 construct: Btk (human, full length) was purchased (Invitrogen, catalog number PV3363); purchased Invitrogen PV3363
Type: biochemical
Protocol: General Procedure for Btk In Vitro Kinase Activity Assay.
Btk (human, full length) was purchased (Invitrogen, catalog number PV3363) and used following a procedure modified from the product literature. […] Subsequently, Btk (5 nM final concentration) in kinase assay buffer supplemented with BSA (0.1 mg/mL) was pre-incubated with inhibitors (six or ten concentrations, in duplicate, 5% DMSO final concentration) for 30 minutes at room temperature. Kinase reactions were initiated by the addition of 0.16 μCi/μL of γ-^32P-ATP (6000 Ci/mmol, NEN) and 0.2 mg/mL substrate (poly[Glu:Tyr], 4:1 Glu:Tyr) and incubated for 30 minutes at room temperature. Kinase activity was determined by spotting 5 μL of each reaction onto sheets of phosphocellulose. Each blot was washed once with 10% AcOH solution, twice with 0.1% H3PO4 solution, and once with MeOH (5-10 minutes per wash). Dried blots were exposed for 30 minutes to a storage phosphor screen and scanned by a Typhoon imager (GE Life Sciences). The data were quantified using ImageQuant (v. 5.2, Molecular Dynamics) and plotted using GraphPad Prism 4.0 software.

T1 sequence (Q06187 whole entry): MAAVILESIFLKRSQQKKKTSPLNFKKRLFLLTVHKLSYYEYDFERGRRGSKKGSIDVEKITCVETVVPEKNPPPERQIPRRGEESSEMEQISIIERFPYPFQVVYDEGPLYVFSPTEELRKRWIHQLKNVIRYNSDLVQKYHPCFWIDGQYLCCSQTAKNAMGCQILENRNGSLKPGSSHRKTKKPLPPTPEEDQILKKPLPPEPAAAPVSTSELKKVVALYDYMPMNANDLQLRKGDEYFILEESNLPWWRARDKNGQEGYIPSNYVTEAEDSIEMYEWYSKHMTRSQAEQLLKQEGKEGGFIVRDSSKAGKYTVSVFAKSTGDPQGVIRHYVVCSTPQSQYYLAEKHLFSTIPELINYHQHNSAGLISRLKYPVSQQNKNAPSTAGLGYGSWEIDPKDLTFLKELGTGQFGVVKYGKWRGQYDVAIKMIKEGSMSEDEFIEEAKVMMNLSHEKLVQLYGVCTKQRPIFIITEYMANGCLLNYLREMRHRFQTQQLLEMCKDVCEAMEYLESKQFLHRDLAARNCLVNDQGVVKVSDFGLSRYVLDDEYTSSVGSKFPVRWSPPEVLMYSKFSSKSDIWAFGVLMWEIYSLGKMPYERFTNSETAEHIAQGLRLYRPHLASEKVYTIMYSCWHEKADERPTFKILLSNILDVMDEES

SMILES | IC50 [nM]
N#C/C(=C\C1CC1)C(=O)N1CCCC(n2nc(-c3ccc(Cl)cc3)c3c(N)ncnc32)C1 (centres unmarked) | < 100
N#C/C(=C\C1CC1)C(=O)N[C@H]1CC[C@@H](n2nc(-c3ccc(Oc4ccccc4)cc3)c3c(N)ncnc32)CC1 | < 1000
N#C/C(=C\c1ccccc1)C(=O)N1CCCC(n2nc(-c3ccc(Oc4ccccc4)cc3)c3c(N)ncnc32)C1 (centres unmarked) | < 100
N#C/C(=C\C1CC1)C(=O)N1CCC(Cn2nc(-c3ccc(Oc4ccccc4)cc3)c3c(N)ncnc32)CC1 | < 1000
N#C/C(=C\C1CC1)C(=O)N1CC[C@H](n2nc(-c3ccc(Oc4ccccc4)cc3)c3c(N)ncnc32)C1 | < 1000
N#C/C(=C\C1CC1)C(=O)N1CC[C@@H](n2nc(-c3ccc(Cl)cc3)c3c(N)ncnc32)C1 | < 100
N#C/C(=C\c1ccccc1Cl)C(=O)N1CCCC(n2nc(-c3ccc(Oc4ccccc4)cc3)c3c(N)ncnc32)C1 (centres unmarked) | < 100
CN(C)C(C)(C)/C=C(\C#N)C(=O)N1CCC[C@@H](n2nc(-c3ccc(Oc4ccccc4)cc3)c3c(N)ncnc32)C1 | < 100

Other lines, results leading:

IC50 [nM] | SMILES
< 1000 | N#C/C(=C\C1CC1)C(=O)N1CCC(n2nc(-c3ccc(Oc4ccccc4)cc3)c3c(N)ncnc32)CC1
< 1000 | CC(C)(/C=C(\C#N)C(=O)N1CCC[C@@H](n2nc(-c3ccc(Oc4ccccc4)cc3)c3c(N)ncnc32)C1)CO
< 1000 | N#C/C(=C\C1CC1)C(=O)N1CC[C@@H](n2nc(-c3ccc(Oc4ccccc4)cc3)c3c(N)ncnc32)C1
< 1000 | N#C/C(=C\C1CC1)C(=O)N1CCCC(Cn2nc(-c3ccc(Oc4ccccc4)cc3)c3c(N)ncnc32)C1 (centres unmarked) [drawing 184]

These compounds were tested against BTK (Homo sapiens, UniProt Q06187) (assay: Reversibility of binding: compound in solution before and after perturbation of the target (HPLC-MS/MS)). Conditions: after 5 M guanidine hydrochloride denaturation and trypsin digestion.
Sequence of BTK (Q06187 whole entry): as above
Protocol: The following approach was developed to differentiate compounds that form irreversible bonds with their targets, such as acrylamide compounds, from compound that bind reversibly. […] The reactions were then treated with perturbations including both denaturation with 5 M guanidine hydrochloride and digestion with trypsin, disrupting proper folding of the target. […] The concentration of compound in solution was assessed both preceding and following perturbation using high performance liquid chromatography (HPLC) coupled to tandem mass spectrometry.

Compound in solution in the denatured or digested state? | SMILES
yes | N#C/C(=C\C1CC1)C(=O)N1CCCC(Cn2nc(-c3ccc(Oc4ccccc4)cc3)c3c(N)ncnc32)C1 (centres unmarked) [drawing 187]

Same assay, conditions: protein target in excess over compound, native state

Compound in solution in the native state? | SMILES
no | N#C/C(=C\C1CC1)C(=O)N1CCCC(Cn2nc(-c3ccc(Oc4ccccc4)cc3)c3c(N)ncnc32)C1 (centres unmarked) [drawing 187]
